The term GI50 denotes the concentration that inhibits growth by half. Read a low GI50 as greater sensitivity of the cells.

One compound from ChEMBL document CHEMBL1177675, “Synthesis and antiproliferative evaluation of certain iminonaphtho[2,3-b]furan derivatives” (Bioorg Med Chem, 2010) can be followed below.

SMILES strings stand for the structures. Active and inactive are the calls of the source. The calls are words filed in the database; no cut-off is given here. A value given as a limit tells only on which side of the number the result lay.

For data set [1], the system named is MCF7. Put plainly: Cytotoxicity against human MCF7 cells at 4 ug/ml after 48 hrs by sulforhodamine B assay relative to control. The data set is classed as functional. (The SRB assay estimates cell density from bound dye.)
The test system of data set [2] is NCI-H460. Put plainly: Cytotoxicity against human NCI-H460 cells at 4 ug/ml after 48 hrs by sulforhodamine B assay relative to control. The class given is functional.
For data set [3], the system named is SF-268. Put plainly: Cytotoxicity against human SF268 cells at 4 ug/ml after 48 hrs by sulforhodamine B assay relative to control. The data set is classed as functional.
The subject of data set [4] is MCF7. Put plainly: Cytotoxicity against human MCF7 cells after 72 hrs by XTT assay. The data set is classed as functional. Particulars: MCF7, 72 h. (In general: Formazan colour is commonly taken as a measure of viable cells.)
For data set [5], the system named is NCI-H460. Put plainly: Cytotoxicity against human NCI-H460 cells after 72 hrs by XTT assay. The class given is functional. Particulars: NCI-H460, 72 h.
Data set [6] has as its system SF-268. Description: Cytotoxicity against human SF268 cells after 72 hrs by XTT assay. The conditions noted are these: SF-268, 72 h. The data set is classed as functional.
A short description of data set [7]: Cytotoxicity against human Detroit 551 cells after 72 hrs by XTT assay. The class given is cell-based.
Data set [8] concerns MCF7. Description: Selectivity index, ratio of GI50 for human Detroit 551 cells to GI50 for human MCF7 cells. The data set is classed as functional.
Data set [9] relates to NCI-H460. Put plainly: Selectivity index, ratio of GI50 for human Detroit 551 cells to GI50 for human NCI-H460 cells. The class given is functional.
The subject of data set [10] is SF-268. Put plainly: Selectivity index, ratio of GI50 for human Detroit 551 cells to GI50 for human SF268 cells. The class given is functional.
The test system of data set [11] is K562. Description: Cytotoxicity against human K562 cells after 72 hrs by XTT assay. The data set is classed as functional. Particulars: K562, 72 h.
Data set [12] concerns K562. Description: Selectivity index, ratio of GI50 for human Detroit 551 cells to GI50 for human K562 cells. The data set is classed as functional.
The subject of data set [13] is K562. Description: Cell cycle arrest in human K562 cells assessed as accumulation at G0/G1 phase at 1 uM after 24 hrs using propidium iodide staining by flow cytometry. The data set is classed as functional.
The subject of data set [14] is K562. Description: Cell cycle arrest in human K562 cells assessed as accumulation at S phase at 1 uM after 24 hrs using propidium iodide staining by flow cytometry. The class given is functional.
Data set [15] concerns K562. Description: Cell cycle arrest in human K562 cells assessed as accumulation at G2/M phase at 1 uM after 24 hrs using propidium iodide staining by flow cytometry. The class given is functional. On the technique in general: A flow cytometer gives signals particle by particle.
Data set [16] concerns K562. Put plainly: Cell cycle arrest in human K562 cells assessed as accumulation at Sub-G1 phase at 1 uM after 24 hrs using propidium iodide staining by flow cytometry. The class given is functional.
Data set [17] concerns K562. Put plainly: Induction of apoptosis in human K562 cells assessed as morphological changes at 1 to 10 uM after 48 hrs using DAPI staining by fluorescent microscopic analysis. The data set is classed as functional, cell-based.
Data set [18] concerns K562. Description: Induction of apoptosis in human K562 cells assessed as formation of fragmented DNA at 1 to 10 uM after 48 hrs using ethidium bromide staining by agarose gel electrophoresis. The data set is classed as functional, cell-based.
Data set [19] has as its system K562. Put plainly: Induction of apoptosis in human K562 cells assessed as activation of caspase-3 activity after 48 hrs by immunoblot analysis. The data set is classed as functional, cell-based.
Data set [20] concerns K562. Put plainly: Induction of apoptosis in human K562 cells assessed as PARP cleavage after 48 hrs by immunoblot analysis. The class given is functional, cell-based.

Consider `CO/N=C1/c2ccccc2C(=O)c2occc21`, for which the Activity turned out to be 36% in the data set with MCF7 [1]; 4% in the data set on NCI-H460 [2]; 22% in the data set on SF-268 [3]; 26.1% in the data set with K562 [13]; 35.7% with K562 [14]; 38.2% in the data set with K562 [15]. Besides, the Activity with K562 [16] was 4.8%; in the data set with K562 [19], “Dose-dependent effect”; with K562 [20], “Dose-dependent effect”. The GI50 with MCF7 [4] came out at 10.2 µM; with NCI-H460 [5], 6.76 µM; in the data set with SF-268 [6] it was 16.5 µM; in the data set with K562 [11], 0.6 µM. This compound registered a GI50 at 72 h in data set [7] above 100 µM. The RatioGI50 in the data set on MCF7 [8] is reported as above 9.85; in the data set on NCI-H460 [9] it was above 14.79; with SF-268 [10], above 6.05; in the data set on K562 [12] it was above 166.67. Further, the result in the data set with K562 [17] and in the data set with K562 [18] was Active.
